SMILES strings stand for the structures. Read-outs that look alike come from different tables or passages of the source.

The values that follow come from patent publication US10179785B2, “Imidazotriazinone or imidazopyrazinone derivatives, and use thereof” (ST PHARM CO., LTD., priority 2014, dated 2019).

The assay has as its target T1, tankyrase 1 (Homo sapiens, UniProt O95271).
T1 construct: purchased Trevigen 4700-096-K
T1 sequence (O95271 1-1327): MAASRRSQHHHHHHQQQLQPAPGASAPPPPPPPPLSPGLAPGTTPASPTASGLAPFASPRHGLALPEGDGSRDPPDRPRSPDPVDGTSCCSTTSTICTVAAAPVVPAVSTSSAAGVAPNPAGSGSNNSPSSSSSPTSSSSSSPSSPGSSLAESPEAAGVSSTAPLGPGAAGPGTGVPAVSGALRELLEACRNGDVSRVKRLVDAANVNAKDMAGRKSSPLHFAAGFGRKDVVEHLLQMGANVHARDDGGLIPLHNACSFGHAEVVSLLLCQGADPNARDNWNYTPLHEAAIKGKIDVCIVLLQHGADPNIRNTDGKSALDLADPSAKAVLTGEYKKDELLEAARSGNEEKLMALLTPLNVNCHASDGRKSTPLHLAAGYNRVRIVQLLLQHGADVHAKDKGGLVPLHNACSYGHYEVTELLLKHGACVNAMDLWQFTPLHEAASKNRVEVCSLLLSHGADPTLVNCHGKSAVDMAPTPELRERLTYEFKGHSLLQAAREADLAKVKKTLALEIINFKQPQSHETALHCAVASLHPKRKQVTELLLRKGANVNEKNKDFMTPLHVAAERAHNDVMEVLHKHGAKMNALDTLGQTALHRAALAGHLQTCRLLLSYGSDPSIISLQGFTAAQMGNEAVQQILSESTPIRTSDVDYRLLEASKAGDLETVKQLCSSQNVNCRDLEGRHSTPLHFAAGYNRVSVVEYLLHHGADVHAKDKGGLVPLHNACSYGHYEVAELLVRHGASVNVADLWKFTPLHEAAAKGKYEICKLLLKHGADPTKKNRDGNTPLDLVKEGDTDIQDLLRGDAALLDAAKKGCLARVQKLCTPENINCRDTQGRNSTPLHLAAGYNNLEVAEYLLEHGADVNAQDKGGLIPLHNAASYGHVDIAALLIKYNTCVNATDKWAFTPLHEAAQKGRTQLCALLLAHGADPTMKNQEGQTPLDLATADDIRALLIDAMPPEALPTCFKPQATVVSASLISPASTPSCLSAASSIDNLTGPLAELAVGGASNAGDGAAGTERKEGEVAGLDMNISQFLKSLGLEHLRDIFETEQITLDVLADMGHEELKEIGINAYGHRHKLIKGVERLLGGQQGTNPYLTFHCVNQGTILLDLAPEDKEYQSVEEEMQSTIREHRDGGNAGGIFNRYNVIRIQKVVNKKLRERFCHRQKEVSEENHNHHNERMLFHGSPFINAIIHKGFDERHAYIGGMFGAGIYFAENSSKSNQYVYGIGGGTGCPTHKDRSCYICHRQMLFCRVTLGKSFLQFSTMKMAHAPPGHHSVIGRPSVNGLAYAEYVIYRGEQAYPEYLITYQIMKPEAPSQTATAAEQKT
Nature of the assay: Analysis of activity of tankyrase 1 (Trevigen kit, ELISA absorbance at 450 nm). Format: biochemical. Here is the method:
Activities of novel compounds synthesized according to Examples 1 to 48 against tankyrase 1 were analyzed using a Trevigen kit (Cat. No. 4700-096-K). Poly PAR histone protein-coated 96-well plate, anti-PAR monoclonal antibody and goat anti-mouse IgG-HRP were used for measurement of absorbance by ELISA method. Specifically, 20× I-PAR assay buffer was diluted to 1× by adding water, and 50 μL of the diluted buffer was added to each well of the 96-well plate followed by reacting at rt for 30 min. Then, the supernatant was completely removed from each well and 10 μL of 1× I-PAR assay buffer and 15 μL of assay substrate were added to each well along with 1 μL of a 50× solution of inhibitors to be tested, which were the compounds obtained in the Examples 1 to 48. 10 m Units/μL of tankyrase 1 enzyme was diluted 50-fold with 1× I-PAR assay buffer and 25 μL of the diluted enzyme was added to each well and reacted while stirring at rt for 30 min. One without any compound of the present invention was used as a positive control and another containing 1× I-PAR assay buffer with the same volume instead of tankyrase 1 enzyme was used as a negative control. Upon completion of the reaction, 200 μL of PBSX, which was prepared by adding 0.1% triton X-100 to PBS, was added and removed and this washing process was repeated twice. Washing was repeated twice more using PBS in the same manner. 5× antibody diluent was diluted with distilled water to 1× concentration, 50 μL of the diluted goat anti-mouse IgG-HRP to 1/2000 was added to each well and reacted while stirring at rt for 30 min. Washes were carried out twice using PBSX and PBS, respectively. After addition of 50 μL of TACS-sapphire to each well of the plate, the plate was blocked from light to react for 10 min to 15 min and the color of the reaction solution turned blue. To stop the reaction, 50 μL of 0.2N HCl was added to turn the solution yellow. Finally, the absorbance of the resulting solution was measured at 450 nm.

Where [1] appears, read: Trevigen kit Cat. No. 4700-096-K, reaction at rt for 30 min, read-out: TNKS1 (IC50).

Regarding `Cc1ncc2c(=O)[nH]c(N3CCN(c4c(F)cc(OCCN5CCC(O)C5)cc4F)CC3)nn12` (centres unmarked) [compound 35, 2-(4-(2,6-Difluoro-4-(2-(3-hydroxypyrrolidin-1-yl)ethoxy)phenyl)piperazin-1-yl)-7-methylimidazo[1,5-f][1,2,4]triazin-4(3H)-one], the IC50 under setting [1] turned out to be 102 nM. `Cc1ncc2c(=O)[nH]c(N3CCN(c4c(F)cc(OCC(O)CO)cc4F)CC3)nn12` (centres unmarked) [compound 9, 2-(4-(4-(2,3-Dihydroxypropoxy)-2,6-difluorophenyl)piperazin-1-yl)-7-methylimidazo[1,5-f][1,2,4]triazin-4(3H)-one]: the IC50 under setting [1] stood at 79.5 nM. For the compound `Cc1ncc2c(=O)[nH]c(N3CCN(c4c(F)cc(OCCN5CCC(O)CC5)cc4F)CC3)nn12` [compound 36, 2-(4-(2,6-Difluoro-4-(2-(4-hydroxypiperidin-1-yl)ethoxy)phenyl)piperazin-1-yl)-7-methylimidazo[1,5-f][1,2,4]triazin-4(3H)-one], under setting [1], the IC50 is 65.2 nM. On to `COCCOc1cc(F)c(N2CCN(c3nn4c(C)ncc4c(=O)[nH]3)CC2)c(F)c1` [compound 2, 2-(4-(2,6-Difluoro-4-(2-methoxyethoxy)phenyl)piperazin-1-yl)-7-methylimidazo[1,5-f][1,2,4]triazin-4(3H)-one], for which the IC50 amounted to 31.8 nM. Take `Cc1ncc2c(=O)[nH]c(N3CCN(c4c(F)cc(OCCN(C)C)cc4F)CC3)nn12` [compound 6, 2-(4-(4-(2-(Dimethylamino)ethoxy)-2,6-difluorophenyl)piperazin-1-yl)-7-methylimidazo[1,5-f][1,2,4]triazin-4(3H)-one]: the IC50 under setting [1] was found to be 19.6 nM.

The term IC50 denotes the concentration at which inhibition is half-maximal.
